The record followed here is patent publication US12502391B2, “Multi-kinase inhibitors of VEGF and TGF beta and uses thereof” (AIVIVA BIOPHARMA, INC., priority 2018, dated 2025).

One data set relates to TGF-β1 mRNA. Nature of the data set: TGF-β1 mRNA expression (qPCR) in skin of LL-37-challenged mice. It is filed as in vivo. Particulars: single intradermal injection 1.6 mg. As to the method: (§1) In our study, mice were injected subcutaneously with 40 μl of LL-37 (3.3 mg/mL) to induce inflammatory reactions. Immediately following the LL-37 injection, axitinib, nintedanib, sunitinib, or lenvatinib were individually administered as a single intradermal injection (1.6 mg). LL-37 injection was repeated every 12 hours for a total of 4 injections. Endotoxin-free water and dexamethasone (3 mg/kg by intraperitoneal injection, twice), respectively, were used as negative and positive control groups.
(§2) Mice were then anaesthetized, and tissue samples of lesion sites were excised and fixed for H&E stainings and immunohistochemical analysis. Markers for inflammation (CD4 and CD8) were determined using specific antibodies. TGF beta levels are measured by mRNA expression using qPCR.
The TGFb1 mRNA expression in mice induced with LL37 and treated with lenvatinib was 79% of that challenged with LL37 alone (i.e., without treatment).

Data set [1] relates to LL37-induced inflammation. Put plainly: Histopathology (inflammation, CD4+ and CD8+ lymphocyte scores) in LL37-induced dermal inflammation model. It is filed as in vivo. Particulars: mice, single intradermal injection 1.6 mg, LL-37 challenge, 48 hours. As to the method: as §1
At 48 hours after the initial LL-37 injection, the dorsal skin was photographed, and the severity of skin lesions were scored for redness and measured for areas of involvement.
as §2
The tissue samples were analyzed for inflammation characteristics. Histopathology endpoints included inflammation, and CD4+ and CD8+T-lymphocyte immunostaining. For inflammation scores, tissues were examined histologically and scored for inflammatory cell infiltrate.

For another data set, the system named is subconjunctival scarring. Put plainly: Bleb survival after glaucoma filtration surgery in rabbit eyes. The data set is classed as in vivo, rabbits. How it is done:
In order to investigate the anti-scarring effect of topically applied test compounds following ocular surgeries, glaucoma filtration surgery was performed on rabbit eyes. Postoperative subconjunctival wound healing is a major cause of late bleb failure after glaucoma filtration surgery in humans. Select multikinase inhibitors were tested for effect on bleb survival over time. Inhibition of subconjunctival fibrosis following surgery will improve bleb survival. Vehicle was used as a negative control and pirfenidone was used a positive control.
A scleral tract was created in the left eyes superiorally by tunneling a beveled 22-gauge intravenous cannula through the sclera, beginning behind the limbus and continuing until the cannula is visible in the anterior chamber. The cannula was flushed with sodium heparin (1000 units) prior to placement. The cannula needle was withdrawn and the cannula advanced beyond the pupillary margin to prevent iris blockage of the tube. The cannula was trimmed approximately 2 mm and secured to the sclera using suture. Both the Tenon's and the conjunctiva were sutured with 9-0 Prolene. Six rabbits were used per group and the left eye of each rabbit underwent glaucoma filtration surgery. The treatment groups include vehicle control, pirfenidone (1%, w/v) as a positive control, sorafenib (0.3%, w/v), and lenvatinib (0.3%, w/v). Eyedrops (35 uL) were topically applied to the eyes following surgery three times day for 30 days. All animals were sacrificed on Day 30.
Bleb was monitored throughout the study. Bleb volumes were measured with the use of calibrated calipers. […] There were differences noted between groups at Day 7, and the majority of blebs were gone by Day 14 through Day 30 indicating bleb failure due to subconjunctival scarring. Results of the vehicle and pirfenidone groups were similar to those reported in the literature (Zhong H et al., Invest Ophthalmol Vis Sci, 52: 3136-3142, 2011).

The nature of data set [2]: Ocular tissue and plasma distribution after topical ocular instillation (LC-MS/MS). The data set is classed as in vivo, New Zealand White rabbits. As to conditions: male, New Zealand White, rabbit. How it is done:
The objective of this study was to assess the local tolerance and ocular distribution of sorafenib and lenvatinib (0.3% w/w) when administered by topical ocular instillation in the eyes. Five to six male New Zealand White rabbits were used per treatment group. Each right eye received a 35 μL eyedrop of the vehicle, sorafenib (0.3% w/w), or lenvatinib (0.3% w/w) three times daily for 5 days. On Dosing Day 5, the animals were sacrificed and eyes were enucleated, and plasma and the ocular tissues were collected. Tissue and plasma concentrations of the compounds were measured by LC-MS/MS.

Another data set relates to subretinal fibrosis. Put plainly: Laser-induced subretinal fibrosis model in mice. As to conditions: for effect on subretinal fibrosis: approximately 1 μL intravitreally on day of laser application, Days 15 and 35; for neovascular lesion sizes: approximately 1 μL of 1% (w/w) intravitreally on day of laser application. It is filed as in vivo, C57BL/6 mice. As to the method:
The anti-fibrotic effects of test compounds were also evaluated in a subretinal fibrosis model in C57BL/6 mice. Three to five lesions were generated in the Bruch's membrane of the study eye using laser photocoagulation (75-μm spot size, 0.1-s duration, 90 mW, OcuLight TX 532 nm). Subretinal fibrosis started to form 5-7 days post laser application. Test compounds having certain spectrum of multikinase inhibition activities or vehicle were intravitreally injected on the day of laser application. The dosing concentration of the test compounds was 1% (w/w) of nintedanib and lenvatinib. The control groups were vehicle and mouse VEGF164 antibody. There were 12 mice per treatment group. Approximately, 1 μL each of the test compounds, vehicle, or positive control was injected intravitreally to the right eye of each animal. On Days 15 and 35, the eyes were examined with fluorescein angiography, followed by enucleation. Immunostaining on the dissected choroid was used to assess subretinal fibrosis (e.g., collagen 1, isolectin B4 and/or DAPI). The primary antibodies used were fluorescence conjugated isolectin B4 (FITC-conjugated isolectin B4) and anti-collagen type I antibody. […] Thus, these compounds can be used to treat subretinal fibrosis associated with proliferative retinal diseases.

Data set [3] deals with rabbit ear hypertrophic scar. Nature of the data set: Histopathology of rabbit ear wounds (neovascularization, fibrosis, re-epithelization). It is filed as in vivo, New Zealand white rabbits. Set-up: key to Total Score, Treated Mean: aggregate of neovascularization, fibrosis, re-epithelization grades; key to Neovascularization score, Treated Mean / Fibrosis/Collagen score, Treated Mean / Re-epithelization score, Treated Mean: five-step severity grade: minimal, mild, moderate, marked, severe. As to conditions: rabbit ear wound, intradermal dosing of 1 wt. %; for Total Score, Treated Mean: aggregation of microscopic findings; for Fibrosis/Collagen score, Treated Mean / Neovascularization score, Treated Mean / Re-epithelization score, Treated Mean: five-step severity grading (minimal to severe). How it is done: In New Zealand white rabbits, maintained under a surgical plane of anesthesia, trauma stimulation of the skin on the ventral surface of both ears is initiated on Day 1. Trauma sites are evaluated on Days 8, 15, 22, 29, 36, and 43. On days 15 and 29, each site is dosed with test compounds (e.g., 1% w/w, 100 μl) by intradermal or intralesional injections.
At necropsy, each treatment site was harvested and preserved for hematoxylin and […] and Mason's trichrome stainings. Each lesion was examined histologically and graded for neovascularization, fibrosis and re-epithelization using a five-step/severity grading system (minimal, mild, moderate, marked, and severe). The average total score is an aggregation of these microscopic findings relating to an inflammatory response.

Molecules are shown by their SMILES. Read-outs that look alike come from different tables or passages of the source.

`COc1cc2nccc(Oc3ccc(NC(=O)NC4CC4)c(Cl)c3)c2cc1C(N)=O` [lenvatinib]: in the data set with TGF-β1 mRNA (LL-37 challenge), the “TGF-β1 mRNA expression among all treatment groups” value is “lowest TGF-β1 mRNA expression”. In addition, the “TGFb1 mRNA expression relative to LL37 alone (without treatment)” value in the data set on TGF-β1 mRNA (LL-37 every 12 hours x4, 48 hours after initial LL-37 injection) amounted to 79%. The “scores of inflammation (inflammatory cell infiltrate), words” value in data set [1] was “prominent reductions”. Further, the “bleb survival on Day 7” value with subconjunctival scarring (eyedrops 35 uL three times a day, pirfenidone 1% w/v, lenvatinib 0.3% w/v, compared to vehicle and sorafenib groups) is recorded as “kept bleb survival on Day 7”. Moreover, the concentration at 5 day of dosing was determined as 5.49 ng/g in data set [2] (in vivo, Ocular tissue concentration, Aqueous Humor, Mean); 38 ng/g in data set [2] (in vivo, Ocular tissue concentration, Choroid, Mean); 300 ng/g in data set [2] (in vivo, Ocular tissue concentration, Conjunctiva, Mean); 178 ng/g in data set [2] (in vivo, Ocular tissue concentration, Cornea, Mean); 18.2 ng/g in data set [2] (in vivo, Ocular tissue concentration, Iris Ciliary Body, Mean); 23.5 ng/g in data set [2] (in vivo, Ocular tissue concentration, Retina, Mean). Besides, the concentration at 5 day of dosing in data set [2] (in vivo, Ocular tissue concentration, Sclera, Mean) was determined as 49 ng/g; in data set [2] (in vivo, Ocular tissue concentration, Vitreous Humor, Mean) it was 0.619 ng/g; in data set [2] (in vivo, plasma concentration, mean (±SD)), 131 ng/mL. Besides, in the data set on subretinal fibrosis, the “effect on subretinal fibrosis” value is “therapeutic effects in the treatment of subretinal fibrosis”. Besides, the “neovascular lesion sizes” value in the data set on subretinal fibrosis was “marked reductions in neovascular lesion sizes”.

Take `COC(=O)c1ccc2c(c1)NC(=O)/C2=C(\Nc1ccc(N(C)C(=O)CN2CCN(C)CC2)cc1)c1ccccc1` [nintedanib]: in data set [3], the “angiogenesis/neovascularization and fibrosis by histopathology versus untreated wounds (words)” value was “decreased angiogenesis and fibrosis”; the “average total score of test wounds, fold lower than untreated wounds” value is “about 1.33 fold”; the “Total Score, Treated Mean” value worked out at 4.5; the “Fibrosis/Collagen score, Treated Mean” value was determined as 3. In addition, in data set [3], the “Neovascularization score, Treated Mean” value is given as 1 and the “Re-epithelization score, Treated Mean” value was 0.5. For the same compound, in data set [3] (listed as Nintedanib), the “angiogenesis/neovascularization and fibrosis by histopathology versus untreated wounds (words)” value was “much less neovascularization and about the same fibrosis as untreated wounds”. Also, the “scores of inflammation (inflammatory cell infiltrate), words” value in data set [1] is given as “prominent reductions”. Further, in the data set with subretinal fibrosis, the “effect on subretinal fibrosis” value was “therapeutic effects in the treatment of subretinal fibrosis” and the “neovascular lesion sizes” value was “marked reductions in neovascular lesion sizes”.

As to `CNC(=O)c1cc(Oc2ccc(NC(=O)Nc3ccc(Cl)c(C(F)(F)F)c3)cc2)ccn1` [sorafenib], the “angiogenesis/neovascularization and fibrosis by histopathology versus untreated wounds (words)” value was “do not show any reduction in angiogenesis” in data set [3]; “slightly increased neovascularization, and similar or slightly increased fibrosis” in data set [3] (listed as Sorafenib). In data set [3], the “Total Score, Treated Mean” value is listed as 5.8. The “Fibrosis/Collagen score, Treated Mean” value in data set [3] stood at 2.5. Moreover, the “Neovascularization score, Treated Mean” value in data set [3] worked out at 3. Further, in data set [3], the “Re-epithelization score, Treated Mean” value was 0.3. The “bleb failure on Day 14” value with subconjunctival scarring (0.3% w/v eyedrops three times a day, 6 eyes per group) was “all of the sorafenib treated eyes demonstrated bleb failure”. In addition, the concentration at 5 day of dosing in data set [2] (aqueous humor, topical, 0.3 % w/w (35 μL eyedrop), rabbit eyes, topical instillation of 0.3% three times daily for five days, N=6, read-out: Ocular tissue concentration, Aqueous Humor, Mean) is 0 ng/g; in data set [2] (choroid, topical, 0.3 % w/w (35 μL eyedrop), rabbit eyes, topical instillation of 0.3% three times daily for five days, N=6, read-out: Ocular tissue concentration, Choroid, Mean) it was 8.19 ng/g; in data set [2] (conjunctiva, topical, 0.3 % w/w (35 μL eyedrop), rabbit eyes, topical instillation of 0.3% three times daily for five days, N=6, read-out: Ocular tissue concentration, Conjunctiva, Mean), 860 ng/g; in data set [2] (cornea, topical, 0.3 % w/w (35 μL eyedrop), rabbit eyes, topical instillation of 0.3% three times daily for five days, N=6, read-out: Ocular tissue concentration, Cornea, Mean), 131 ng/g; in data set [2] (iris ciliary body, topical, 0.3 % w/w (35 μL eyedrop), rabbit eyes, topical instillation of 0.3% three times daily for five days, N=6, read-out: Ocular tissue concentration, Iris Ciliary Body, Mean) it was 3.34 ng/g; in data set [2] (plasma, topical, 0.3 % w/w (35 μL eyedrop), 0.3% w/w eyedrop 35 μL three times daily, Day 5 of dosing, read-out: plasma concentration, mean (±SD)), 5.09 ng/mL. In addition, the concentration at 5 day of dosing in data set [2] (retina, topical, 0.3 % w/w (35 μL eyedrop), rabbit eyes, topical instillation of 0.3% three times daily for five days, N=6, read-out: Ocular tissue concentration, Retina, Mean) was 17.4 ng/g; in data set [2] (sclera, topical, 0.3 % w/w (35 μL eyedrop), rabbit eyes, topical instillation of 0.3% three times daily for five days, N=6, read-out: Ocular tissue concentration, Sclera, Mean), 16.4 ng/g; in data set [2] (vitreous humor, topical, 0.3 % w/w (35 μL eyedrop), rabbit eyes, topical instillation of 0.3% three times daily for five days, N=6, read-out: Ocular tissue concentration, Vitreous Humor, Mean) it was 0.11 ng/g.
